US9239334B2, “Fatty acid C16: 1N7-palmitoleate a lipokine and biomarker for metabolic status” (PRESIDENT AND FELLOWS OF HARVARD COLLEGE, priority 2008, dated 2016)

Assays:
[1] = system: SCD-1, FAS and ELOVL6 expression in liver; test: Liver lipogenic gene expression after 6-hour lipid infusion; format: in vivo; conditions: 6-hour infusion, compared to vehicle-infused mice
Description: FIG. 5A-5E reflects the regulation of SCD-1 promoter activity in vivo. […] PUF: polyunsaturated fatty acid response element. FIG. 5B is the regulation of WT and mutant SCD-1 promoter activities by fatty acids. AA: arachidonic acid. FIG. 5C is the regulation of wild-type and mutant SCD-1 promoter activities by plasma lipids. Plasma lipids extracted from WT or FABP^−/− (DK) mice were used to treat FAO cells Infected with WT or mutant SCD-1 promoter-carrying adenoviruses and luciferase assays performed as described in the Examples. FIG. 5D presents the in vivo regulation of wild-type and mutant SCD-1 promoter activities. Luciferase assays were performed on liver tissues of WT or DK mice injected with WT or mutant SCD-1 reporter carrying adenoviruses. FIG. 5E is liver gene expression in mice infused with vehicle, TG:palmitate or TG:palmitoleate. *, p<0.05. […] INTRALIPID® fatty acid lipid infusion solution with 2 mM triglycerides:palmitate or palmitoleate were prepared using a previously described protocol with modifications (Stein et al., 1997). Briefly, lipids were dissolved in a solvent containing 5% glycerol and 0.72% phosphocholine in 0.9% saline, heated at 80° C. for 10 min, and then sonicated 1 min four times. For TG:palmitoleate, the heating was omitted to avoid oxidization of the lipids. Lipids stay in suspension for a week, so to prevent clogging the preparations must be vortexed well before loading the syringe and tubing. Seven days before lipid infusion, mice were anesthetized and an indwelling catheter inserted in the left internal jugular vein, then the animals were left to recover the following days. After overnight fasting, lipids were infused at a rate of 500 μl/kg/min for six hours. At the end of the infusion, insulin (1 U/Kg) was injected into mice via the infusion tubing and tissues were collected for subsequent gene expression and immunoblotting analyses. To determine serum FFA level during lipid infusion, blood was collected from mouse tails at different time intervals and spun down to collect plasma. Serum FFAs were determined using a commercial kit (Wako Chem.). TG:palmitate and TG:palmitoleate are difficult to dissolve at a concentration that are compatible with the infusion rate of hyperinsulinemic-euglycemic clamp study and yet maintain efficient delivery of these lipids. Therefore fatty acid: palmitoleate was used to infuse mice for clamp study. Palmitoleate was dissolved in saline containing 2% BSA (vehicle) at 15 mM with repeated sonications and was infused through the tubing at a rate of 3.3 μl/min for two hours. A standard hyperinsulinemic-euglycernic clamp was then performed as previously described (Furuhashi et al., 2007). Vehicle or palmitoleate solution was used to dissolve tracer ^3H-glucose and so lipid was also infused at 3.3 μl/min throughout the 4-hour period of clamp study.

[2] = system: insulin receptor, IRS-1, IRS-2 and AKT phosphorylation in liver; test: Insulin signaling in liver of lipid-infused mice (immunoblotting); format: in vivo; conditions: TG lipid infusion, compared to vehicle controls
Description: (§1) FIGS. 7A-7G show data on the regulation of insulin signaling and glucose metabolism by palmitoleate. FIG. 7A is the basal and insulin-stimulated phosphorylation of insulin receptor (IR), insulin receptor substrate-1 (IRS-1) and -2 (IRS-2) and AKT in liver of mice infused with vehicle (Veh), TG:palmitoleate (C16:1n7) or TG:palmitate (C16). Representative blots are shown and quantifications on the right are averaged results of three mice in each treatment group. […] Representative blots are shown and quantifications on the right are averaged results of three mice in each treatment group.
(§2) The left panel presents the insulin-stimulated phosphorylation of insulin receptor and AKT in liver of mice infused with vehicle or palmitoleate. […] Mice were infused with vehicle or palmitoleate at 3.3 μl/min for six hrs, and insulin (1 U/Kg) was injected through the infusing tubing. Three minutes after insulin injection, tissues were collected and immunoblotting analyses were performed.
(§3) The present invention also provides for the regulation of insulin action by increased circulating palmitoleate. To study whether palmitoleate regulates systemic metabolic responses, lipid infusions were administered in conscious mice. Lipid infusion has been used widely to investigate the relationship between plasma FFAs and insulin resistance, but almost all studies using this protocol utilized preparations of natural lipid products containing a variety of fatty acids. Kim et al., 114 J. Clin. Invest. 823-27 (2004); Kim et al., 277 J. Biol. Chem. 32915-22 (2002); Yu et al., 277 J. Biol. Chem. 50230-36 (2002). […]
(§4) Samples of 200 μl serum were collected using heparin-coated glass tubes and spun at 13,000 g in a microcentrifuge to separate the plasma. […] Tissue protein lysates was separated with SDS-PAGE gels and phosphorylated or total proteins were detected with the following antibodies: phospho AKT Serine 473, AKT, insulin receptor, phospho-tyrosine (Santa Cruz Biotech.); IRS-1 and IRS-2 (Upstate); phospho-GSK and GSK (Cell Signaling Tech.); phospho-insulin receptor from (Calbiocbem). […]

aP2 = biological target: T1, aP2 (Mus musculus, UniProt P04117); test: Lipogenic gene expression in adipose tissue of mice treated with aP2 inhibitor; format: in vivo; conditions: WT mice on HFD, oral gavage 40 mg/kg/day for two months
T1 construct: from tissue; host or cells: epididymal fat pads of mice on high-fat diet (in vivo oral dosing)
T1 sequence (P04117 1-132): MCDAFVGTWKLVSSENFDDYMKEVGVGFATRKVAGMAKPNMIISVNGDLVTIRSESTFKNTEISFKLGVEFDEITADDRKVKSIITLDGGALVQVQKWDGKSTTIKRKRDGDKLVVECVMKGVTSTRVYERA
Protocol: FIGS. 6A-6D present data related to the regulation of lipogenic genes in adipose and liver of WT and FABP^−/− mice. […] Gene expression patterns in epididymal fat pad were determined by quantitative real-time PCR. FIG. 6B is regulation of lipogenic gene promoter activities by FABPs in differentiated adipocytes. […] Gene expressions in epididymal fat pads from mice treated with vehicle or aP2 inhibitor were determined with quantitative real-time PCR. […] relates to the differential regulation of lipogenic gene expression in adipose and liver tissues. Levels of the mRNAs in liver and epididymal fat pad from mice fed with high-fat diet were determined with quantitative real-time PCR. ACC1, acetyl-CoA carboxylase1; FAS, fatty acid synthase; SCD-1, stearoyl-CoA desaturase; ELOVL6, fatty acid elongase 6; DGAT1, acyl-CoA:diacylglycerol acyltransferase 1. *, p<0.05.
To directly address this, adipogenic cell lines from FABP−/−mice were differentiated them into adipocytes (FIG. 19). […] This observation agrees with that observed in adipose tissue of FABP-deficient mice. This pattern was tested in vivo in an alternative experimental system where aP2 function in mice is blocked through an orally administrated synthetic inhibitor. […] Furuhashi et al., 2007. […]

SCD-1 promoter = test: SCD-1 promoter-driven luciferase reporter in FAO hepatoma cells; format: cell-based, murine; conditions: hepatocytes (FAO) treated with a single fatty acid, 300 μM
Protocol: This possibility was tested using several highly sensitive assays to probe the functional profile and activities of plasma lipids. SCD-1 was chosen as a target because it was determined previously that the suppression of hepatic SCD-1 activity is a major alteration in FABP-deficient mice under diet-induced or genetic obesity. Cao et al., 2006; Maeda et al., 2005. Hepatic SCD-1 expression is regulated by a variety of hormones and nutritional factors such as insulin, glucose, and polyunsaturated fatty acids (PUFAs). Ntambi & Miyazaki, 43 Prog. Lipid Res. 91-104 (2004). […] Chu et al., 26 Mol. Cell Biol. 6786-98 (2006); Ntambi, 40 J. Lipid Res. 1549-58 (1999). The 1.5 kb murine SCD-1 promoter was placed in front of a luciferase reporter and inserted into an adenovirus construct. FAO rat hepatoma cells infected with this adenovirus verified the responsiveness of this reporter to PUFA, consistent with previous observations (FIG. 15). Because this assay system was adapted to a microplate format, very small amounts of lipids were required for experimentation. This system allowed direct testing for the effects of lipids extracted from plasma of WT and FABP-deficient animals.
Lipids were extracted from whole plasma and applied to liver cells expressing the SCD-1 promoter reporter gene. […] To control for any difference in the amount of lipids extracted from plasma and to mimic the in vivo regulation of SCD-1 expression, mixtures of FFAs were generated with the same molar ratio detected in WT or FABP-deficient plasma lipids using the major fatty acids listed in FIG. 2C. […]
as §4

[3] = system: insulin receptor signaling in muscle tissue; test: Insulin signaling in muscle of lipid-infused mice (immunoblotting); format: in vivo; conditions: TG lipid infusion
Description: as §1, §2, §3, §4

Row | Compound | SCD-1 expression in liver [1] | fatty acid elongase 6 (ELOVL6) expression in liver [1] | fatty acid synthase (FAS) expression in liver [1] | proximal insulin-signaling pathway in liver (insulin receptor, IRS-1, IRS-2, AKT) [2] | insulin receptor signaling in muscle [3] | also measured
1 | CCCCCCCCCCCCCCCC(=O)OCC(COC(=O)CCCCCCCCCCCCCCC)OC(=O)CCCCCCCCCCCCCCC [TG-palmitate, reference compound] | increase | increase | increase | suppressed | – | –
2 | CCCCCC/C=C\CCCCCCCC(=O)OCC(COC(=O)CCCCCCC/C=C\CCCCCC)OC(=O)CCCCCCC/C=C\CCCCCC [TG-palmitoleate] | substantial decrease | substantial decrease | substantial decrease | strongly potentiated | – | –
3 | CCc1c(-c2ccccc2)c(-c2ccccc2)nn1-c1ccccc1-c1cccc(OCC(=O)O)c1 [aP2 inhibitor] | – | – | – | – | – | lipogenic gene expression in adipose tissues (aP2): increased
4 | CCCCC/C=C\C/C=C\C/C=C\C/C=C\CCCC(=O)O [arachidonic acid, reference compound] | – | – | – | – | – | SCD-1 promoter-driven reporter activity (SCD-1 promoter): suppressed
5 | CCCCCCCCCCCCCCCC(=O)O [palmitate, reference compound] | – | – | – | – | impaired | –
6 | C16:1n7-palmitoleate | – | – | – | – | enhanced | –
